From patent US20200291018A1, “TAM KINASE INHIBITORS” (SYROS PHARMACEUTICALS, INC., priority 2017, published 2020)

What was measured:
MERTK = molecular target: T1, MERTK (Homo sapiens, UniProt Q12866); experiment: TR-FRET kinase activity assay, MERTK; assay type: biochemical; settings: for IC50: TR-FRET activity assay, ATP at Km, 60 minutes, read-out: Mer IC50; for Mer/Flt3 ratio (FLT3 IC50/Mer IC50): ratio calculated as FLT3 IC50/Mer IC50
T1 sequence (Q12866 21-999): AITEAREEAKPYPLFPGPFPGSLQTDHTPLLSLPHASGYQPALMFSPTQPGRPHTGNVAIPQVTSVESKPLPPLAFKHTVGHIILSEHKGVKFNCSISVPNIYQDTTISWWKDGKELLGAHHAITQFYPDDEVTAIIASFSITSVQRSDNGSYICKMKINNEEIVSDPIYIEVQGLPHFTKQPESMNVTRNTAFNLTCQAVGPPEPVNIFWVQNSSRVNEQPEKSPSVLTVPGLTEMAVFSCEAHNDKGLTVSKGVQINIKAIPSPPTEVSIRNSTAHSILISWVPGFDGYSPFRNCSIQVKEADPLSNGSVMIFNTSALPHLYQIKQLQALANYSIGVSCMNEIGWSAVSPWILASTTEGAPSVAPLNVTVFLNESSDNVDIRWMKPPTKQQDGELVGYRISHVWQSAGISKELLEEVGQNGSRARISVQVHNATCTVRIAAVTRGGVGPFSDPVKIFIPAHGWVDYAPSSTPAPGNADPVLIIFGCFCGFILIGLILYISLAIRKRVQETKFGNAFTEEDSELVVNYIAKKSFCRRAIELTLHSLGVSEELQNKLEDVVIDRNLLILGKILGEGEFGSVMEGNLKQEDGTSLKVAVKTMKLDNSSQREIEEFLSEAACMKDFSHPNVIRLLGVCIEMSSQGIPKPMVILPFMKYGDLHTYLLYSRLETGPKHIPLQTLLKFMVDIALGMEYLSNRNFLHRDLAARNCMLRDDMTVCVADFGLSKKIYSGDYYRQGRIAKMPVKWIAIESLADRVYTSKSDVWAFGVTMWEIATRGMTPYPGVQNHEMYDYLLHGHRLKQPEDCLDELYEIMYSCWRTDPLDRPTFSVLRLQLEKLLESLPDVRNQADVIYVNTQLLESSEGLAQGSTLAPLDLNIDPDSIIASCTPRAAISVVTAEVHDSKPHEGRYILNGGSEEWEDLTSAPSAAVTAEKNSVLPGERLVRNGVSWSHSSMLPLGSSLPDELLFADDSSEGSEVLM
Summary of the method: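 Steps: compound, enzyme and labeled peptide combined at RT (50 mM HEPES pH 7.5, 10 mM MgCl2, 1 mM DTT); ATP added at Km; 60 min reaction; EDTA quench; Eu-antibody development 30 min in darkness; TR-FRET measured and IC50 fitted.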

TYRO3 = molecular target: T2, TYRO3 (Homo sapiens, UniProt Q06418); experiment: TR-FRET kinase activity assay, TYRO3; assay type: biochemical; settings: ATP at Km, 60 minutes
T2 sequence (Q06418 41-890): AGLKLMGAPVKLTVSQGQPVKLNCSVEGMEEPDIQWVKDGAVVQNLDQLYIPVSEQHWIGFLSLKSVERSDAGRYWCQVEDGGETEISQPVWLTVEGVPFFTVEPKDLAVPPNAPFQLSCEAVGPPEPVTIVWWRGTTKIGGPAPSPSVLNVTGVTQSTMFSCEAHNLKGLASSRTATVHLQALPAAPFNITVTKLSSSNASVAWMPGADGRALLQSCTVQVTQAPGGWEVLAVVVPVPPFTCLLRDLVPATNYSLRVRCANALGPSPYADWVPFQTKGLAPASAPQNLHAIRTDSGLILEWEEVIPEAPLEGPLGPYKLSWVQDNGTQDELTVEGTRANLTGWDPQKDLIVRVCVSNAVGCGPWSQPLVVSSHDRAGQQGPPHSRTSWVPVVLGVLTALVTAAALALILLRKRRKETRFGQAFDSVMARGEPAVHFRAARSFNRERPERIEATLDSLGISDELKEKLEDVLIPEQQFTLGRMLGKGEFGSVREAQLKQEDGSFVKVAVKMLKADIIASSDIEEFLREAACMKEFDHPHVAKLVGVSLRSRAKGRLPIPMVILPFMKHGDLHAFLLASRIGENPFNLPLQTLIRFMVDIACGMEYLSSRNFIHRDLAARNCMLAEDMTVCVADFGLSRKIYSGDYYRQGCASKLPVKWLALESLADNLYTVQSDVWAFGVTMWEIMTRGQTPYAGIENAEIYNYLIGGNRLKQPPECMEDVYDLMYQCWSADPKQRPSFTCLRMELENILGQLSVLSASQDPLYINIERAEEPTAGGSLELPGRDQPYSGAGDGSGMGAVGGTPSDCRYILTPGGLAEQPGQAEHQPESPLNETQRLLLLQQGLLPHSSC
Procedure: IC50 values for compound inhibition of AXL, FLT3, MERTK and TYRO3 activity were determined using a TR-FRET activity assay. A peptide substrate with a fluorescent label is phosphorylated on a tyrosine by each enzyme, where the now phosphorylated product is bound by a Europium-labeled antibody specific to that phosphorylation site. The proximity between the antibody and the substrate gives a signal known as TR-FRET. As the enzyme is inhibited by compound, less phosphorylated peptide product is made, causing a decrease in overall signal.
Activity assays were performed in a 384-well, small volume, black microplates in an active enzyme volume of 10 uL and final developed volume of 20 uL. Final assay conditions are 50 mM HEPES pH 7.5, 10 mM MgCl2, 1 mM EGTA, 0.01% Brij 35 and 1 mM DTT, all at RT. Enzyme, substrate-labeled peptide and compound are mixed, and then the reaction is initiated with the addition of ATP at Km concentration for each enzyme. The reaction is allowed to run 60 minutes and then quenched with a 12.5 mM EDTA (ethylenediamine tetraacetic acid) solution. The plate is then developed with the addition of Europium-labeled antibody for a final volume of 20 uL and is then incubated for 30 minutes in darkness. Plates are read in a PHERASTAR® plate reader. Data are analyzed in GraphPad PRISM.

Compound | IC50 (MERTK) | Mer/Flt3 ratio (FLT3 IC50/Mer IC50) (MERTK) | IC50 (TYRO3)
CC[C@H](C)Nc1ncc2c(OC(CO)CO)ncc([C@H]3CC[C@H](O)CC3)c2n1 [Compound 241] | 100 to 1000 nM | ++ (a ratio of between 10 and 100) | ≤ 100 nM
COC[C@H](C)Nc1ncc2c(OC3CCOCC3)ncc(C3=CCC4(CC3)OCCO4)c2n1 [Compound 242] | 100 to 1000 nM | ++ (a ratio of between 10 and 100) | 100 to 1000 nM
COC[C@H](C)Nc1ncc2c(OC3CCOCC3)ncc(C3CCC4(CC3)OCCO4)c2n1 [Compound 243] | ≤ 100 nM | +++ (a ratio of >100) | 1000 to 10000 nM
CCc1ncc([C@H]2CC[C@H](O)CC2)c2nc(N[C@@H](C)CC)ncc12 [Compound 244] | ≤ 100 nM | +++ (a ratio of >100) | 1000 to 10000 nM
CC[C@H](C)Nc1ncc2c(OCC(F)(F)F)ncc([C@H]3CC[C@H](O)CC3)c2n1 [Compound 245] | ≤ 100 nM | +++ (a ratio of >100) | ≤ 100 nM
CC[C@H](C)Nc1ncc2c(OC3CC(C)(C)NC(C)(C)C3)ncc([C@H]3CC[C@H](O)CC3)c2n1 [Compound 246] | ≤ 100 nM | +++ (a ratio of >100) | ≤ 100 nM
CC[C@H](C)Nc1ncc2c(OC3C[C@@H](C)O[C@@H](C)C3)ncc([C@H]3CC[C@H](O)CC3)c2n1 (stereo partly drawn) [Compound 247] | 100 to 1000 nM | ++ (a ratio of between 10 and 100) | 100 to 1000 nM
CC[C@H](C)Nc1ncc2c(=O)n(CC34CCC(N)(CC3)CC4)cc([C@H]3CC[C@H](O)CC3)c2n1 [Compound 251] | ≤ 100 nM | +++ (a ratio of >100) | ≤ 100 nM
CCOc1ncc(CC2CCN(C)CC2)c2nc(N[C@@H](C)CC)ncc12 [Compound 253] | 1000 to 10000 nM | ++ (a ratio of between 10 and 100) | 100 to 1000 nM
CCOc1ncc(CC2CCN(C(=O)OC(C)(C)C)CC2)c2nc(N[C@@H](C)CC)ncc12 [Compound 254] | 1000 to 10000 nM | + (a ratio of >2.0 and <10) | 1000 to 10000 nM
CC[C@H](C)Nc1ncc2c(C)ncc([C@H]3CC[C@H](O)CC3)c2n1 [Compound 255] | ≤ 100 nM | +++ (a ratio of >100) | ≤ 100 nM
CC[C@H](C)Nc1ncc2c(OCC34CCC(O)(CC3)CC4)ncc([C@H]3CC[C@H](O)CC3)c2n1 [Compound 256] | ≤ 100 nM | +++ (a ratio of >100) | 100 to 1000 nM
CC[C@H](C)Nc1ncc2c(=O)n(CC34CCC(O)(CC3)CC4)cc([C@H]3CC[C@H](O)CC3)c2n1 [Compound 257] | ≤ 100 nM | +++ (a ratio of >100) | ≤ 100 nM
COC[C@H](C)Nc1ncc2c(OC3CC(C)(C)N(C)C(C)(C)C3)ncc([C@H]3CC[C@H](O)CC3)c2n1 [Compound 259] | ≤ 100 nM | +++ (a ratio of >100) | ≤ 100 nM
COC[C@H](C)Nc1ncc2c(O[C@H]3CC[C@H](O)CC3)ncc([C@H]3CC[C@H](O)CC3)c2n1 [Compound 260] | ≤ 100 nM | +++ (a ratio of >100) | ≤ 100 nM
CC[C@H](C)Nc1ncc2c(O[C@H]3CC[C@H](C(C)(C)O)CC3)ncc([C@H]3CC[C@H](O)CC3)c2n1 [Compound 261] | ≤ 100 nM | ++ (a ratio of between 10 and 100) | 100 to 1000 nM
O[C@H]1CC[C@H](c2cnc(OC3CCNCC3)c3cnc(Nc4ccccc4F)nc32)CC1 [Compound 262] | ≤ 100 nM | ++ (a ratio of between 10 and 100) | ≤ 100 nM
CC[C@H](C)Nc1ncc2c(=O)n(C[C@@H]3COCCN3C)cc([C@H]3CC[C@H](O)CC3)c2n1 [Compound 263] | ≤ 100 nM | +++ (a ratio of >100) | 100 to 1000 nM
CC[C@H](C)Nc1ncc2c(=O)n(CC34CCC(N(C)C)(CC3)CC4)cc([C@H]3CC[C@H](O)CC3)c2n1 [Compound 264] | ≤ 100 nM | +++ (a ratio of >100) | ≤ 100 nM
CC[C@H](C)Nc1ncc2c(=O)n(C[C@H]3COCCN3C)cc([C@H]3CC[C@H](O)CC3)c2n1 [Compound 265] | ≤ 100 nM | +++ (a ratio of >100) | 100 to 1000 nM
CC[C@H](C)Nc1ncc2c(=O)n([C@H]3CC[C@H](N(C)C)C3)cc([C@H]3CC[C@H](O)CC3)c2n1 [Compound 266] | ≤ 100 nM | +++ (a ratio of >100) | ≤ 100 nM
CC[C@H](C)Nc1ncc2c(O[C@H]3CC[C@H](N(C)C)C3)ncc([C@H]3CC[C@H](O)CC3)c2n1 [Compound 267] | ≤ 100 nM | +++ (a ratio of >100) | ≤ 100 nM
CC(C)(C)Nc1ncc2c(OC3CCNCC3)ncc([C@H]3CC[C@H](O)CC3)c2n1 [Compound 268] | ≤ 100 nM | +++ (a ratio of >100) | 100 to 1000 nM
